How the values were obtained:
FAK = FAK phosphorylation Western blotting on ligand-tethered SAMs; format: cell-based, murine
Procedure: Cells were detached and gently agitated in serum-free suspension for 45 min to reduce background. Cells were then seeded at 200 cells/mm^2 serum-free for 1 h. Cells were lysed in RIPA buffer (1% Triton X-100, 1% sodium deoxycholate, 0.1% SDS, 150 mM NaCl, 150 mM Tris-HCl (pH 7.2), 350 μg/ml PMSF, 10 μg/ml leupeptin, and 10 μg/ml aprotonin) for 20 min on ice. Samples were pipetted up and down 20 times and centrifuged at 8000 g for 10 min to shear DNA and isolate protein contents. Total protein was quantified using micro-BCA (Pierce). Equal amounts of protein were boiled for 10 min in Laemmli buffer and separated by SDS-PAGE on a 7% gel, transferred to nitrocellulose membranes, and blocked with Blotto (5% nonfat dry milk, 0.20% Tween-20) overnight at 4° C. Membranes were gently rocked in antibodies against FAK and specific phosphorylated FAK tyrosine residues (anti-total FAK at 1 μg/ml, anti-FAK pY397 at 0.35 μg/ml, anti-FAK pY576 at 0.5 μg/ml) for 1 h. After washing with TBS-Tween (20 mM Tris HCl pH 7.6, 137 mM NaCl, 0.1% Tween-20), secondary antibody (biotin-conjugated anti-rabbit IgG; 1:20,000) was added for 1 h, followed by alkaline phosphatase-conjugated anti-biotin antibody (1:10,000) in Blotto. Immunoreactivity was assessed by ECF fluorescent substrate. FAK bands were visualized by a Fuji Image Analyzer and phosphorylation levels normalized to total FAK.

α5β1 integrin = test: Integrin binding by cross-linking/extraction/reversal technique; format: cell-based, rat; conditions: equimolar tethered brushes; vs RGD-tethered brushes and serum-exposed titanium
Procedure: (§1) In vitro evaluation of these engineered titanium surfaces was performed using primary rat bone marrow stromal cells since this heterogeneous population contains osteoprogenitors, and human bone marrow stromal cells are currently used in clinical applications. Cell adhesion was examined using a centrifugation assay that applies a controlled detachment force. To allow direct comparisons between ligand-tethered surfaces, an equimolar ligand density of 0.9 pmol/cm^2 was used; this value represents the highest ligand density that could be ascribed for both surfaces to be equimolar. […] As a complementary test of integrin specificity, integrin binding was quantified using a biochemical cross-linking/extraction/reversal technique.

[1] = system: HFN7.1 monoclonal antibody; test: ELISA with HFN7.1 monoclonal antibody; format: binding; conditions: passively adsorbed ligands, various coating concentrations
Procedure: An ELISA was used to probe for the biological activity of the FNIII7-10 fragment compared to pFN. FNIII7-10 or pFN was adsorbed onto either uncoated or Neutravidin-coated (100 μg/ml) 96-well black U-well Dynex plates at various concentrations for 30 min. Following incubation in blocking buffer (0.25% BSA, 0.1 M EDTA, 2.5% Tween-20, 0.00125% NaN3), HFN7.1 antibody (0.6 μg/ml in blocking buffer) was added for 1 h at 37° C., and, after washing with blocking buffer, surfaces were incubated in alkaline phosphatase-conjugated anti-mouse IgG (0.6 μg/ml) for 1 h at 37° C. Washed surfaces were exposed to 4-methylumbelliferyl phosphate (25 mg/ml in 10 mM diethanolamine, pH 9.5). The resulting fluorescence was quantified using an HTS 7000 Plus plate reader (Perkin Elmer, Foster City, Calif.) at 360 nm excitation and 465 nm emission.

[2] = system: rat femur segmental defect; test: 8 mm segmental defect in the rat femur, micro-CT bone formation; format: in vivo; conditions: coated PCL scaffolds (20 μg/ml) vs PCL and empty defects; 4 and 12 weeks
Procedure: The ability of GFOGER peptide (SEQ ID NO:1)-coated polymeric scaffolds to heal critical sized defects was examined. […] A 8 mm segmental defect in the rat femur was used to evaluate bone repair. Three experimental groups were evaluated: (i) empty defect controls, (ii) PCL scaffolds, and (iii) GFOGER peptide (SEQ ID NO:1)-coated PCL scaffolds. Polycaprolactone (PCL) is a clinically used polymer widely used in orthopaedic and soft tissue applications. Scaffolds were passively coated with GFOGER peptide (SEQ ID NO:1) (20 μg/ml) as described above. Bone formation was assessed non-invasively via micro-computed tomography (micro-CT) at 4 and 12 weeks. […] No differences in bone formation were observed between PCL and empty defects.

[3] = system: bone marrow stromal cells; test: Calcium incorporation (matrix mineralization) assay; format: cell-based, rat; conditions: 14 days in culture; vs untreated titanium
Procedure: Primary bone marrow stromal cells were harvested from the femora of young adult male Wistar rats in accordance with an IACUC-approved protocol. After excision, hindleg femora and tibiae were cleared of soft tissue and rinsed in growth medium (α-minimal essential medium supplemented with 10% fetal bovine serum, 1% penicillin-streptomycin, and 0.3 μg/ml amphotericin B). The ends of the long bones were then removed and the marrow space was flushed with culture medium (3-5 ml), using a syringe with an 18-gauge needle. Marrow isolates were pooled, centrifuged, resuspended in growth medium, and seeded for adhesion-dependent selection on tissue culture polystyrene dishes. Non-adherent hematopoietic cells were removed during subsequent medium exchanges, which occurred every other day. Cells were subcultured every two days according to standard techniques. For in vitro osteogenic assays, cells were seeded at 10,000 cells/cm^2 in growth medium. After 24 h, cultures were maintained in osteogenic medium consisting of growth medium supplemented with 50 μg/ml L-ascorbic acid and 3 mM sodium β-glycerophosphate.
Calcium content was determined by dissolving mineralized deposits with 1 N acetic acid overnight. […] The absorbance of the resulting samples was measured at 650 nm and compared to a linear standard curve of CaCl2 in 1 N acetic acid.

αvβ3 integrin = test: Integrin binding by cross-linking/extraction/reversal technique; format: cell-based, rat; conditions: equimolar tethered brushes; vs FNIII7-10 support
Procedure: as §1

FNIII7-10: monobiotinylated recombinant fibronectin fragment spanning the 7-10th type III repeats of fibronectin; α5β1 integrin ligand
FAK tyrosine-861 phosphorylation (FAK; among both peptide-tethered surfaces): phosphorylated at similar levels | FAK tyrosine-397 phosphorylation (FAK; maximum peptide densities, vs RGD-tethered surface): increased almost threefold | FAK tyrosine-576 phosphorylation (FAK; vs RGD-functionalized support): significantly higher | bound α5β1 integrin (α5β1 integrin): significantly higher levels of bound α5β1 integrin | HFN7.1 binding (biological activity) [1]: equivalent functional activity

GGYGGGPC(GPP)5GFOGER(GPP)5GPC [GFOGER peptide]
bone formation (micro-CT) [2]: enhancement in bone formation | calcium-based mineral deposition [3]: three-fold enhancement

GRGDSPC [RGD peptide, linear RGD oligopeptide purchased from BACHEM; primarily supports αvβ3-mediated adhesion, reference compound]
bound αvβ3 integrin (αvβ3 integrin): higher levels of bound αvμ3
